From publication PMC13083723 (Patterns, 2026)

Test system: Vero-E6 cells
Assay: cells
Type: cell-based
Conditions: Chlorocebus sabaeus, Vero C1008, 24 h, read-out: PL_Result

CC(=O)NCCc1c[nH]c2ccccc12 [SPE_K73700643]
activation at 10 µM: -6.27%

NCCCCN [SPE_K75282878]
activation at 10 µM: 0.35%

COc1cc(Nc2nc3ccccc3nc2NS(=O)(=O)c2ccc(NC(=O)c3ccc(C)c(OC)c3)cc2)cc(OC)c1 [SPE_K75308783]
activation at 10 µM: -7.72%

COc1ccc(-c2sc(NC(=O)C(C)(C)C)nc2C)cc1S(=O)(=O)Nc1ccc(O)cc1 [SPE_K75528696]
activation at 10 µM: 21.7%

O=C(/C=C/c1ccccc1)NCCO [SPE_K76021681]
activation at 10 µM: 2.18%

CC(=O)O[C@]1(C(C)=O)CC[C@H]2[C@@H]3CCC4=CC(=O)CCC4=C3[C@@H](c3ccc(N(C)C)cc3)C[C@@]21C [SPE_K76197012]
activation at 10 µM: -4.74%

Cc1ncc(CO)c(C=O)c1O [SPE_K76204040]
activation at 10 µM: -1.79%

NS(=O)(=O)c1ccc(-n2nc(C(F)(F)F)cc2-c2ccc(Cl)cc2)cc1 [SPE_K76365178]
activation at 10 µM: -2.4%

NC1(Cc2ccc(Cl)cc2)CCN(c2ncnc3[nH]ccc23)CC1 [SPE_K76406695]
activation at 10 µM: -4.38%

CS(=O)(=O)Nc1ccc([N+](=O)[O-])cc1Oc1ccccc1 [SPE_K76775527]
activation at 10 µM: -12.8%

CC(=O)Nc1ccc(S(=O)(=O)Nc2ccc([N+](=O)[O-])cc2)cc1 [SPE_K76845197]
activation at 10 µM: -3.76%

CCOC(=O)c1cc(C#N)c(N2CCC(C(=O)NS(=O)(=O)Cc3ccccc3)CC2)nc1C [SPE_K77060810]
activation at 10 µM: -0.985%

N#Cc1ccc(NCCNCC(=O)N2CCC[C@H]2C#N)nc1 [SPE_K77396579]
activation at 10 µM: -14.3%

COc1nc(C)nc(Cl)c1NC1=NCCN1 [SPE_K77771411]
activation at 10 µM: -3.03%

O=S(=O)(c1cccc2c(O)nccc12)N1CCCNCC1 [SPE_K77793136]
activation at 10 µM: -5.16%

c1ccc(CCCCN2CCC(c3ccccc3)CC2)cc1 [SPE_K78061844]
activation at 10 µM: 42.6%

O=[N+]([O-])c1cncn1CCN1CCOCC1 [SPE_K79145628]
activation at 10 µM: -10.4%

Cn1cc(C2=C(c3cn(C4CCN(Cc5ccccn5)CC4)c4ccccc34)C(=O)NC2=O)c2ccccc21 [SPE_K79404599]
activation at 10 µM: -2.44%

O=C1C(Cl)=C(N2CCOCC2)C(=O)N1c1ccc(Cl)c(Cl)c1 [SPE_K79555887]
activation at 10 µM: 5.74%

O=C(c1ccc(CN2CCOCC2)cc1)N1CCN(C2CC2)CC1 [SPE_K79595931]
activation at 10 µM: -2.77%

Cc1cc(N2CCCCC2)nc2ccccc12 [SPE_K80021413]
activation at 10 µM: -1.3%

CC(C)(O)CC(=O)NCCn1ccc2ncnc(Nc3ccc(Oc4cccc(C(F)(F)F)c4)c(Cl)c3)c21 [SPE_K80343549]
activation at 10 µM: -7.02%

c1ccc(C(O[C@@H]2CCCN(CCc3ccc4c(c3)OCO4)C2)c2ccccc2)cc1 [SPE_K80451230]
activation at 10 µM: 13%

Cc1cccc(-c2n[nH]cc2-c2ccc3ncccc3n2)n1 [SPE_K80480517]
activation at 10 µM: 0.32%

COc1ccc(NS(=O)(=O)c2ccc(I)cc2)cc1N1CCN(C)CC1 [SPE_K80639402]
activation at 10 µM: 17.6%

CC(C)n1cnc2c(C(=O)N[C@H]3CN4CCC3CC4)cc(Cl)cc21 [SPE_K80725821]
activation at 10 µM: 0.494%

CN1Cc2c(C(=O)OC(C)(C)C)ncn2-c2ccsc2C1=O [SPE_K80778372]
activation at 10 µM: 4.64%

O=C(Nc1ccccc1C(=O)Nc1ccc(CCO)cc1)c1ccc([N+](=O)[O-])cc1 [SPE_K81053848]
activation at 10 µM: -6.64%

CC(C)[C@]12O[C@H]1[C@@H]1O[C@]13[C@]1(O[C@H]1C[C@H]1C4=C(CC[C@@]13C)C(=O)OC4)[C@@H]2O [SPE_K81258678]
activation at 10 µM: -5.53%

N#CC(c1ccccc1)(c1ccccc1)c1ccccc1Cl [SPE_K81341251]
activation at 10 µM: 4.81%

O=C(O)c1ccc2c(c1)nc(Nc1cccc(Cl)c1)c1ccncc12 [SPE_K81458380]
activation at 10 µM: 1.48%

CC(=O)OCC(=O)NCCCOc1cccc(CN2CCCCC2)c1 [SPE_K81855038]
activation at 10 µM: -10.7%

C=CC(=O)Nc1cc(Nc2nccc(-c3c[nH]c4ccccc34)n2)c(OC)cc1N(C)CCN(C)C [SPE_K81958169]
activation at 10 µM: 5.71%

Nc1nc(=O)[nH]cc1F [SPE_K82143716]
activation at 10 µM: -8.79%

CN(CCCN1c2ccccc2CCc2ccccc21)CC(=O)c1ccc(Cl)cc1 [SPE_K82147103]
activation at 10 µM: -0.728%

CC(=O)Nc1ccc(OC[C@](C)(O)C(=O)Nc2ccc([N+](=O)[O-])c(C(F)(F)F)c2)cc1 [SPE_K82164249]
activation at 10 µM: -13.9%

O=[N+]([O-])O[C@@H]1CO[C@H]2[C@@H]1OC[C@@H]2O [SPE_K82225283]
activation at 10 µM: -18.1%

Cc1cc(C(N)=O)ccc1-n1c(CCC(=O)O)ccc1-c1ccc(-n2ccnc2)cc1 [SPE_K82522873]
activation at 10 µM: -2.92%

CNC(=O)[C@H](Cc1ccccc1)NC(=O)[C@H](CC(C)C)[C@H](CSc1cccs1)C(=O)NO [SPE_K82818427]
activation at 10 µM: 11.4%

C[C@@H](C1=C(CCN(C)C)Cc2ccccc21)c1ccccn1 [SPE_K83192048]
activation at 10 µM: 11.3%

C#CCN(C)Cc1ccccc1 [SPE_K83597974]
activation at 10 µM: -2.77%

C[C@@]12C[C@@]3(O)O[C@@H](O1)[C@]1(COC(=O)c4ccccc4)[C@H]3C[C@@]12O[C@@H]1O[C@H](CO)[C@@H](O)[C@H](O)[C@H]1O [SPE_K83631119]
activation at 10 µM: 4.42%

COc1ccn2ncc(-c3nc4[nH]nc(NC(=O)c5ccc(F)cc5)c4cc3F)c2c1 [SPE_K84068331]
activation at 10 µM: -16.5%

O=C(NCc1ccc(Oc2ccccc2)cc1)c1nc(-c2cc(Br)c(O)c(Br)c2)no1 [SPE_K84892605]
activation at 10 µM: -10.4%

Cc1cc(OCC(=O)O)cc(C)c1Cc1ccc(O)c(C(C)C)c1 [SPE_K85406984]
activation at 10 µM: -18.6%

O=C(O)c1cc(O)c2ccccc2n1 [SPE_K85872723]
activation at 10 µM: -13%

Nc1ccn([C@H]2CC[C@@H](CO)O2)c(=O)n1 [SPE_K85925969]
activation at 10 µM: 2.75%

CCS(=O)(=O)N1CCC[C@@H]2CN3CCc4cc(OC)ccc4[C@@H]3C[C@@H]21 [SPE_K86600316]
activation at 10 µM: -8.68%

O=C(NCC(=O)N1CCCC1)Nc1ccc2cnccc2c1 [SPE_K86718786]
activation at 10 µM: -0.0855%

C=CCN1C[C@H](C(=O)N(CCCN(C)C)C(=O)NCC)C[C@@H]2c3cccc4[nH]cc(c34)C[C@H]21 [SPE_K86882815]
activation at 10 µM: 9.44%

C=C[C@@H]1C[C@]1(NC(=O)[C@@H]1C[C@@H](Oc2ncc(OC)c3ccc(Cl)cc23)CN1C(=O)[C@@H](NC(=O)OC(C)(C)C)C(C)(C)C)C(=O)NS(=O)(=O)C1CC1 [SPE_K87028197]
activation at 10 µM: -0.0254%

CCOC(=O)n1ccn(C)c1=S [SPE_K87156652]
activation at 10 µM: -10.8%

NNC(=O)c1ccncc1 [SPE_K87202646]
activation at 10 µM: 0.348%

COc1cnc(NS(=O)(=O)c2ccc(N)cc2)nc1 [SPE_K87492696]
activation at 10 µM: -0.356%

O=C(Nc1ccc(S(=O)(=O)C(F)(F)F)cc1)C1=CCN(c2ncccc2C(F)(F)F)CC1 [SPE_K87665527]
activation at 10 µM: 1.59%

COc1ccc(Nc2ncnc3ccc(OC)cc23)cc1 [SPE_K87696786]
activation at 10 µM: -2.62%

COc1ccc(CNC(=O)c2sc3nc(C)cc(C)c3c2N)cc1 [SPE_K87727457]
activation at 10 µM: -11.5%

N#CCNC(=O)c1ccc(-c2ccnc(Nc3ccc(N4CCOCC4)cc3)n2)cc1 [SPE_K87737963]
activation at 10 µM: 7.32%

Nc1nnc2[nH]c3ccccc3nc1-2 [SPE_K87932577]
activation at 10 µM: -2.99%

NS(=O)(=O)c1cc(C(=O)O)cc(N2CCCC2)c1Oc1ccccc1 [SPE_K87990216]
activation at 10 µM: 0.629%

Nc1ncnc2c1c(-c1ccc(Cl)cc1)nn2-c1cccc(-c2cnnn2Cc2cccc(-c3ccccc3)c2)c1 [SPE_K88154110]
activation at 10 µM: -7.24%

COc1cc(OC)c(OC)cc1C=O [SPE_K88219015]
activation at 10 µM: -0.692%

COC(=O)C1=CCCN(C)C1 [SPE_K88646909]
activation at 10 µM: 3.55%

O=C(NC[C@H](O)CO)c1ccncc1Nc1ccc(I)cc1F [SPE_K89014967]
activation at 10 µM: -12.6%

O=C1c2ccccc2C(Cc2ccnc(F)c2)(Cc2ccnc(F)c2)c2ccccc21 [SPE_K89274813]
activation at 10 µM: -6.43%

O=C(O)[C@H](Cc1c[nH]c2ccccc12)N1C(=O)c2ccccc2C1=O [SPE_K89391146]
activation at 10 µM: -6.19%

COc1ncc2cc(C(=O)Nc3cc(C(=O)NCc4cccc(Cl)c4)ccc3Cl)c(=O)[nH]c2n1 [SPE_K89517477]
activation at 10 µM: -0.459%

CCOC(=O)Nc1ccc(NCc2ccc(F)cc2)cc1N [SPE_K89917372]
activation at 10 µM: -6.22%

COc1cc2ncn(-c3cc(OCc4ccccc4C(F)(F)F)c(C(N)=O)s3)c2cc1OC [SPE_K90382497]
activation at 10 µM: -7.16%

NCC(=O)Nc1ccc(-n2nc(C(F)(F)F)cc2-c2ccc3c(ccc4ccccc43)c2)cc1 [SPE_K90497590]
activation at 10 µM: -14.6%

c1ccc(Cn2c(-c3ccc(OC[C@H](C4CCNCC4)n4c(-c5ccccc5)nc5ccccc54)cc3)nc3ccccc32)cc1 [SPE_K90830492]
activation at 10 µM: 1.3%

CC(C)[N+](C)(CCOC(=O)C1c2ccccc2Oc2ccccc21)C(C)C [SPE_K90885812]
activation at 10 µM: -7.34%

CCOC(=O)[C@@H](N)Cc1ccc(O)c(O)c1 [SPE_K90982969]
activation at 10 µM: -3.7%

CCCNC(=O)Nc1ccc(Oc2ncnc3cc(OC)c(OC)cc23)cc1Cl [SPE_K90993449]
activation at 10 µM: -9.86%

Oc1cc(O)cc(/C=C/c2ccc(O)c(O)c2)c1 [SPE_K91509126]
activation at 10 µM: 9.23%

S=c1[nH]cnc2nc[nH]c12 [SPE_K91601245]
activation at 10 µM: -8.41%

Nc1ccn([C@H]2C[C@H](O)[C@@H](CO)O2)c(=O)n1 [SPE_K91822704]
activation at 10 µM: 0.471%

Nc1nc(OCc2ccccc2)c2nc[nH]c2n1 [SPE_K92041145]
activation at 10 µM: -3.41%

C=C(c1ccc(C(=O)O)cc1)c1cc2c(cc1C)C(C)(C)CCC2(C)C [SPE_K92441787]
activation at 10 µM: -8.8%

COc1ccc(CCN(C)CCCN2CCc3cc(OC)c(OC)cc3CC2=O)cc1OC [SPE_K92446736]
activation at 10 µM: -9.23%

COc1cc2c(cc1NS(=O)(=O)c1ccc(Br)cc1C)n(C)c(=O)n2C [SPE_K92658264]
activation at 10 µM: -2.45%

CCC[C@H](N[C@@H](C)C(=O)N1[C@H](C(=O)O)C[C@@H]2CCCC[C@@H]21)C(=O)OCC [SPE_K92731339]
activation at 10 µM: 4.37%

COc1ccccc1N1CCN(CCN2C(=O)c3ccccc3C(C)(C)C2=O)CC1 [SPE_K93188295]
activation at 10 µM: -15%
